Reference: PubChem BioAssay (NCI)
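Here, GI50 denotes the concentration required for 50% inhibition of growth. TGI marks complete inhibition of growth.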

Columns and labels:
Test in all cases: NCI tumour cell line growth inhibition, 384-well format
786-0 renal = system: 786-0 renal
A498 renal = system: A498 renal
A549 NSCLC = system: A549 NSCLC
ACHN renal = system: ACHN renal
BT-549 breast = system: BT-549 breast
CAKI-1 renal = system: CAKI-1 renal
CCRF-CEM leukemia = system: CCRF-CEM leukemia
COLO 205 colon = system: COLO 205 colon
DU-145 prostate = system: DU-145 prostate
EKVX NSCLC = system: EKVX NSCLC
HCC-2998 colon = system: HCC-2998 colon
HCT-15 colon = system: HCT-15 colon
HL-60(TB) leukemia = system: HL-60(TB) leukemia
HOP-62 NSCLC = system: HOP-62 NSCLC
HOP-92 NSCLC = system: HOP-92 NSCLC
HS 578T breast = system: HS 578T breast
HT29 colon = system: HT29 colon
IGROV1 ovarian = system: IGROV1 ovarian
KM12 colon = system: KM12 colon
M14 melanoma = system: M14 melanoma
MALME-3M melanoma = system: MALME-3M melanoma
MCF7 breast = system: MCF7 breast
MDA-MB-231 breast = system: MDA-MB-231 breast
MDA-MB-435 melanoma = system: MDA-MB-435 melanoma
MDA-MB-468 breast = system: MDA-MB-468 breast
MOLT-4 leukemia = system: MOLT-4 leukemia
NCI-H226 lung = system: NCI-H226 lung
NCI-H23 lung = system: NCI-H23 lung

In the case of `O=P(O)(O)C(O)(Cn1ccnc1)P(=O)(O)O`, the GI50 (786-0 renal) is reported as greater than 100 µM, the TGI (786-0 renal) is reported as greater than 100 µM and the GI50 (A498 renal) is reported as greater than 100 µM. It also gave a TGI (A498 renal) greater than 100 µM, a GI50 (A549 NSCLC) greater than 100 µM and a TGI (A549 NSCLC) greater than 100 µM. It also gave a GI50 (ACHN renal) greater than 100 µM, a TGI (ACHN renal) greater than 100 µM and a GI50 (BT-549 breast) greater than 100 µM. For the same compound, the TGI (BT-549 breast) was greater than 100 µM, the GI50 (CAKI-1 renal) was greater than 100 µM and the TGI (CAKI-1 renal) was greater than 100 µM. The GI50 (CCRF-CEM leukemia) was greater than 100 µM, the TGI (CCRF-CEM leukemia) was greater than 100 µM and the GI50 (COLO 205 colon) was greater than 100 µM. The TGI (COLO 205 colon) was greater than 100 µM, the GI50 (DU-145 prostate) was greater than 100 µM and the TGI (DU-145 prostate) was greater than 100 µM. It also gave a GI50 (EKVX NSCLC) greater than 100 µM, a TGI (EKVX NSCLC) greater than 100 µM and a GI50 (HCC-2998 colon) greater than 100 µM. It also gave a TGI (HCC-2998 colon) greater than 100 µM, a GI50 (HCT-15 colon) greater than 100 µM and a TGI (HCT-15 colon) greater than 100 µM. The GI50 (HL-60(TB) leukemia) was greater than 100 µM, the TGI (HL-60(TB) leukemia) was greater than 100 µM and the GI50 (HOP-62 NSCLC) was greater than 100 µM. For the same compound, the TGI (HOP-62 NSCLC) was greater than 100 µM, the GI50 (HOP-92 NSCLC) was greater than 100 µM and the TGI (HOP-92 NSCLC) was greater than 100 µM. The GI50 (HS 578T breast) was greater than 100 µM, the TGI (HS 578T breast) was greater than 100 µM and the GI50 (HT29 colon) was greater than 100 µM. The TGI (HT29 colon) was greater than 100 µM, the GI50 (IGROV1 ovarian) was greater than 100 µM and the TGI (IGROV1 ovarian) was greater than 100 µM. It also gave a GI50 (KM12 colon) greater than 100 µM, a TGI (KM12 colon) greater than 100 µM and a GI50 (M14 melanoma) greater than 100 µM. The TGI (M14 melanoma) was greater than 100 µM, the GI50 (MALME-3M melanoma) was greater than 100 µM and the TGI (MALME-3M melanoma) was greater than 100 µM. The GI50 (MCF7 breast) was greater than 100 µM, the TGI (MCF7 breast) was greater than 100 µM and the GI50 (MDA-MB-231 breast) was greater than 100 µM. It also gave a TGI (MDA-MB-231 breast) greater than 100 µM, a GI50 (MDA-MB-435 melanoma) greater than 100 µM and a TGI (MDA-MB-435 melanoma) greater than 100 µM. The GI50 (MDA-MB-468 breast) was greater than 100 µM, the TGI (MDA-MB-468 breast) was greater than 100 µM and the GI50 (MOLT-4 leukemia) was greater than 100 µM. For the same compound, the TGI (MOLT-4 leukemia) was greater than 100 µM, the GI50 (NCI-H226 lung) was greater than 100 µM and the TGI (NCI-H226 lung) was greater than 100 µM. It also gave a GI50 (NCI-H23 lung) greater than 100 µM and a TGI (NCI-H23 lung) greater than 100 µM.
